# Results from patent publication EP1707622A1, “USE OF COMPOUNDS THAT REGULATE HDAC6 TUBULIN DEACETYLASE ACTIVITY IN THE PREPARATION OF PHARMACEUTICAL COMPOSITIONS, METHOD OF IDENTIFYING THE AFOR[…], SAID PHARMACEUTICAL COMPOUNDS AND APPLICATIONS THEREOF” (UNIVERSIDAD AUTONOMA DE MADRID CIUDAD UNIVERSITARIA …, priority 2004, dated 2005).
# Where a SMILES comes first, the peptide text is derived from it. [ ]: non-standard residue; d: D form. Aoe = N[C@@H](CCCCCC(=O)[C@@H]1CO1)C(=O)O
# Tests used:
# J77 cells [1] = assay: Microtubule organizing centre (MTOC) translocation assay; type: cell-based, human; conditions: for restoration of MTOC translocation in cells transfected with HDAC6-GFP: J77 cells transfected with HDAC6-GFP, SEE-pulsed Raji cells, 3 µM TSA, Figures 7A and B; for MTOC translocation: Figure 7B
# Method: A 1:1 ratio of Raji cells and T cells transfected with HDAC6 were placed in contact for 15 minutes at 37°C in RPMI medium. The cell conjugates were then gently resuspended and plated on PLL-coated cover slips for 15 more minutes as previously described (Sancho et al., 2002). The cell conjugates were then fixed, permeabilized and stained for α-tubulin for the purpose of observation by immunofluorescence microscopy. The MTOC was considered to be redirected when it was in close proximity with the T cell plasma membrane, between the cell nucleus and the contact area with the antigen-presenting cell. At least 200 cell conjugates were counted in each experiment.
# J77 cells [2] = assay: LFA-1 organization in the immunological synapse peripheral ring; type: cell-based, human; conditions: J77 cells with SEE-marked Raji cells, 30 minutes at 37°C; Figure 6 and data not shown
# J77 cells [3] = assay: CD3 clustering in the central region of the immunological synapse; type: cell-based, human; conditions: for reversion of the prevention of CD3 clustering caused by HDAC6-GFP: J77 cells transfected with HDAC6-GFP, SEE-marked Raji cells, 30 minutes at 37°C, Figures 5A and B
# HDAC6 = biological target: T1, HDAC6 (Homo sapiens, UniProt Q9UBN7); conditions: CD4+ T lymphocytes and J77 cells pre-treated for 30 minutes (3µM TSA or 5 mM sodium butyrate), SEE-pulsed Raji cells; Figure 3B
# T1 sequence (Q9UBN7 1-1215): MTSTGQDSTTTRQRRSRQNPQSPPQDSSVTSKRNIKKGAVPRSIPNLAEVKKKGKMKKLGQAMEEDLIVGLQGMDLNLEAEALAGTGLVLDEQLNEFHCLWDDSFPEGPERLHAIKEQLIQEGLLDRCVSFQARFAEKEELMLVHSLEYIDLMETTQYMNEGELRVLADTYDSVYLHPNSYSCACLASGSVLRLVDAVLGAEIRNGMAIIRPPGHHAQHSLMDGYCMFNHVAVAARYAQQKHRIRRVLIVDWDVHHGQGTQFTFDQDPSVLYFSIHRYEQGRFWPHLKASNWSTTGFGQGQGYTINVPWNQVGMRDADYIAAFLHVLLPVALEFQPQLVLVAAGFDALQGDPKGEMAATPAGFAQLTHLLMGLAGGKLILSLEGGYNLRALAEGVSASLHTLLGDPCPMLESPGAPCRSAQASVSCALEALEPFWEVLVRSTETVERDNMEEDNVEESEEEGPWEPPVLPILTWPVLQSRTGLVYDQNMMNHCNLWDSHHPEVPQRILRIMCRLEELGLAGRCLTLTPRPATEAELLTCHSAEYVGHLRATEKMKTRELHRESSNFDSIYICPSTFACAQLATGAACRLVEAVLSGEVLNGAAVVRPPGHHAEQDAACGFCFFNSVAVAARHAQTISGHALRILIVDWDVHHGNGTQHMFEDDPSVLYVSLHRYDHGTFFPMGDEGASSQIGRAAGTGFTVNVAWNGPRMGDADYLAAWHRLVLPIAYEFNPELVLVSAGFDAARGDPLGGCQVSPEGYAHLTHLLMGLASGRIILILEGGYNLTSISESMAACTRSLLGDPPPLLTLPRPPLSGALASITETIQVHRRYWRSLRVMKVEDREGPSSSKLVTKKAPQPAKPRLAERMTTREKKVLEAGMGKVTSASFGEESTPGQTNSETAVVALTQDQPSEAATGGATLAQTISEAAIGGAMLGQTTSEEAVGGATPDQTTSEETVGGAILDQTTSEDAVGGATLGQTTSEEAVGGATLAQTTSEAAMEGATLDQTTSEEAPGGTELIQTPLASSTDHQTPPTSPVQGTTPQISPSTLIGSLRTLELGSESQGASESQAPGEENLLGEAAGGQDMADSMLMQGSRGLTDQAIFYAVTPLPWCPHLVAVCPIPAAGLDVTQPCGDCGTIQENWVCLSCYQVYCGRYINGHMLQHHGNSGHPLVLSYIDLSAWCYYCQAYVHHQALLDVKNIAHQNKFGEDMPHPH
# [4] = treatment effect in the quantitative analysis
Structure (SMILES),restoration of MTOC translocation in cells transfected with HDAC6-GFP (J77 cells [1]),"kinetics of MTOC translocation (J77 cells [1]; cell conjugates between J77 and Raji cells, different times, Figure 7C)",MTOC translocation (J77 cells [1]; peripheral blood CD4+ lymphocytes with SEE-pulsed Raji cells),LFA-1 organization in the peripheral ring of the immunological synapse (J77 cells [2]),"kinetics of CD3 clustering in the central region of the immunological synapse (J77 cells [3]; J77 cells pre-treated, Raji cells marked with 1µg/ml SEE, different times, Figure 5C)",reversion of the prevention of CD3 clustering caused by HDAC6-GFP (J77 cells [3]),"CD3 clustering (J77 cells [3]; pretreated cells in contact with SEE-marked Raji cells, Figure 5B)",MTOC translocation (J77 cells [1]; [4]),acetylated tubulin staining in the contact site with antigen-presenting cells (HDAC6)
"CC(/C=C/C(=O)NO)=C\[C@@H](C)C(=O)c1ccc(N(C)C)cc1 [TSA, Trichostatin A]",restored normal translocation,accelerates,increases,well organized,accelerated,reverted,slight increase,,
CCCC(=O)[O-].[Na+] [sodium butyrate],not,,,,,not,,did not affect,weak
O=C1N[C@@H](Cc2ccccc2)C(=O)N2CCC[C@@H]2C(=O)N[C@@H](CCCCCC(=O)[C@@H]2CO2)C(=O)N[C@H]1Cc1ccccc1 [trapoxin B] (cyclo(FF[dP][Aoe])),not,,,,,not,,did not affect,
